Where a name gives a salt, the structure may show the parent alone. Read-outs that look alike come from different tables or passages of the source.
Experiments:
[1] = molecular target: T1, human H1 receptor (Homo sapiens, UniProt P35367); assay: Radioligand binding to histamine receptor H1 ([3H] Pyrilamine, CHO-K1 membranes); details: for nH: histamine H1 receptors
T1 construct: expressed in transfected cells; host or cells: CHO-K1
Text: Biochem Biophys Res Comm. 197(3): 1601-1608, 1993]. […] Biochem Biophys Res Comm. 197(3): 1601-1608, 1993].
Pyrilamine is used as positive control.

[2] = molecular target: T2, human α2A receptor (Homo sapiens, UniProt P08913); assay: Radioligand binding to adrenergic receptor α2A ([3H] MK-912, Sf9 membranes); details: for nH: Receptor α2A
T2 construct: expressed in transfected cells; host or cells: Sf9
T2 sequence (P08913 1-465): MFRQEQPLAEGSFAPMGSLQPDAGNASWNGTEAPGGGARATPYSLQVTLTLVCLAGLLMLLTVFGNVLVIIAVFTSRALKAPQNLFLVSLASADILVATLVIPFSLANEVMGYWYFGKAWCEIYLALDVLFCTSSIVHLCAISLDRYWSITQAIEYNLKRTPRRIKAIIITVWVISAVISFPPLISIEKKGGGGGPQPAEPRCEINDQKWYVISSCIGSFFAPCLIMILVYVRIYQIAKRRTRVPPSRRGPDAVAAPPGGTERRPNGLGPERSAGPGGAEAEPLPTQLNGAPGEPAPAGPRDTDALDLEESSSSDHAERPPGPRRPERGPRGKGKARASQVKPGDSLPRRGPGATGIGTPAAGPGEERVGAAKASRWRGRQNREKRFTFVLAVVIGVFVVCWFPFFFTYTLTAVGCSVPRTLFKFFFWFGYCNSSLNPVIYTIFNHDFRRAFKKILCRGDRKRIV
Text: For this purpose sDNA of human α2A receptor is expressed in Sf9 cells, as described in [Uhlen S, Porter AC and Neubig RR. […] J Pharmacol ExpTher. […] J Pharmacol ExpTher. […] Yohimbine is used as positive control.

[3] = molecular target: T3, adrenergic receptor α1B (Rattus norvegicus, UniProt P15823); assay: Radioligand binding to adrenergic receptor α1B ([3H] Prazosin, rat liver membranes); details: for nH: Receptor α1B
T3 construct: membrane species from rat liver (rat of Wistar breed) are prepared; from tissue; host or cells: rat (Wistar) liver
T3 sequence (P15823 1-515): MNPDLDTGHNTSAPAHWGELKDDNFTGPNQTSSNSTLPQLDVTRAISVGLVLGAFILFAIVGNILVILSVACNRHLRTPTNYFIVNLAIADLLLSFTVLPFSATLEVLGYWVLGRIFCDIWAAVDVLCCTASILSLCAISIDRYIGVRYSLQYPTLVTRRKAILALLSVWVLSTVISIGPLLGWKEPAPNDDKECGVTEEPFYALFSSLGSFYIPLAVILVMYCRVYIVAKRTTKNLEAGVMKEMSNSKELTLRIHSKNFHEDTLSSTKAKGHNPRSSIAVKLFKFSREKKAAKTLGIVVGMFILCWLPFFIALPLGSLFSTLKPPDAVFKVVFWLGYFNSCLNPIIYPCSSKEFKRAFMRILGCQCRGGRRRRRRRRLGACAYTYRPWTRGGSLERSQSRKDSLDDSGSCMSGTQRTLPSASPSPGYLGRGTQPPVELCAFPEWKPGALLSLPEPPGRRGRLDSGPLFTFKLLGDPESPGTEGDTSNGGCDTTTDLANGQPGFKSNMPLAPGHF
Text: Species heterogeneity of hepatic α1A-, α1B-, and α1C-subtypes. Biochem Biophys Res Commun. […] Prazosin is used as positive control.

[4] = molecular target: T4, human D1 receptor (Homo sapiens, UniProt P21728); assay: Radioligand binding to dopamine receptor D1 ([3H] SCH-23390, CHO membranes); details: for inhibition at 10 µM: read-out: Dopamine receptors, % inhibition D1
T4 construct: expressed in transfected cells; host or cells: CHO
T4 sequence (P21728 whole entry): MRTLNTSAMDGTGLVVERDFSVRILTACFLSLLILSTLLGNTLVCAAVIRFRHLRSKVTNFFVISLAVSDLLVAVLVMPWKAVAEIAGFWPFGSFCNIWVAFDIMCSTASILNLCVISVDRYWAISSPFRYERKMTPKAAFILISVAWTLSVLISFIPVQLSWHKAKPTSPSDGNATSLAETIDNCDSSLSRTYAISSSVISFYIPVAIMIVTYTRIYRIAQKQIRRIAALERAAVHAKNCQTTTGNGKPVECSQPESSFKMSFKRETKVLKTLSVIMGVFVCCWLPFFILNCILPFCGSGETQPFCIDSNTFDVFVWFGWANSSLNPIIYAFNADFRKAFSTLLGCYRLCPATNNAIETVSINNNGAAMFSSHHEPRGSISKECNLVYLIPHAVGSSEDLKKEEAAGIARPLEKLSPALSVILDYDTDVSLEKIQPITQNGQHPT
Text: For this purpose sDNA of human D1 receptor is expressed in CHO cells, as it was described in [Dearry A, Gingrich JA, Falardeau P, Fremeau RT Jr, Bates MD and Caron MG. Molecular cloning and expression of the gene for a human D1 dopamine receptor. Nature. […] Nature.

[5] = molecular target: T5, human D3 receptor (Homo sapiens, UniProt P35462); assay: Radioligand binding to dopamine receptor D3 ([3H] Spiperone, CHO membranes)
T5 construct: expressed in transfected cells; host or cells: CHO
T5 sequence (P35462 whole entry): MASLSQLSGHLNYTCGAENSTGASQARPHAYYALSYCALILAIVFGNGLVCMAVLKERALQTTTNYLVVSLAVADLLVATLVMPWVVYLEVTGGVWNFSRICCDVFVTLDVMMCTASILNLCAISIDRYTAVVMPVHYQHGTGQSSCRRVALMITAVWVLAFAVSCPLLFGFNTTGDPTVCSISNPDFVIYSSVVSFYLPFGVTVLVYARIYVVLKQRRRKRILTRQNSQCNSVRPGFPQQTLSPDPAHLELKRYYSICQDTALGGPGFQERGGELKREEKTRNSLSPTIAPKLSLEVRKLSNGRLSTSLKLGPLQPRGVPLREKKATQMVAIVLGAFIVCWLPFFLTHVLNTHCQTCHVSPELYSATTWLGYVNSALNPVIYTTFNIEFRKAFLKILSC
Text: For this purpose sDNA of human D3 receptor is expressed in CHO cells, as it was described in [Sokoloff P, Giros B, Martres M-P, Bouthenet M-L and Schwartz J-C. Molecular cloning and characterization of novel dopamine receptor (D3) as target for neuroleptics. Nature. […] Molecular cloning and characterization of novel dopamine receptor (D3) as target for neuroleptics. Nature. […] Spiperone is used as positive control.

[6] = molecular target: T6, human D4.2 receptor (Homo sapiens, UniProt P21917, DEL265-296); assay: Radioligand binding to dopamine receptor D4.2 ([3H] Spiperone, CHO-K1 membranes); details: read-out: Dopamine receptors, % inhibition D4.2
T6 construct: expressed in transfected cells; host or cells: CHO-K1
T6 sequence (P21917 with tags, fused parts or gaps DEL265-296): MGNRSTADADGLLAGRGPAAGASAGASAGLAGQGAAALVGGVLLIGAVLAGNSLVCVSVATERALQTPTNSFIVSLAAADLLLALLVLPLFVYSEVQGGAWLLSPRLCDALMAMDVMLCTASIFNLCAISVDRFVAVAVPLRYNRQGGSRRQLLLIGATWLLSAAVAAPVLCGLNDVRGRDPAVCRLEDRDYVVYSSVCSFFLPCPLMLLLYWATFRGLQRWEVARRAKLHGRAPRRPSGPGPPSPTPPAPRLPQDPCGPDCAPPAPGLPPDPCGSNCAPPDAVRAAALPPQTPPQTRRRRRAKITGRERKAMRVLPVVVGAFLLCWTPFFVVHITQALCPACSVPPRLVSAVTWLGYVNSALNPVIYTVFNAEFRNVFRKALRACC
Procedure: Screening of the disclosed compounds for potential ability to interact with dopamine receptor D4.2 is carried out by method of radioligand binding. […] From the cells transfected in this way membrane species are prepared by homogenization of these cells in glass homogenizer with the subsequent separation of plasmatic membranes from cell nuclei, mitochondrias and cell wreckages by differential centrifugation. […] After incubation samples are filtered in vacuo on glass-microfiber filters G/F (Millipor, USA), filters are washed three times with cold solution of medium and radioactivity is measured by scintillation counter MicroBeta 340 (Perkin Elmer, USA). Nonspecific binding which makes up 10% of the overall binding is determined by incubation of membrane species with radioligand in the presence of 10 µM of Haloperidol.
Spiperone is used as positive control. Tested compounds' binding to the receptor is determined by their ability to displace radioligand and expressed in percent of displacement (%I). Values of %I are calculated according to the following equation: %I = (TA-CA)/(TA-NA)*100, [formula] wherein: TA - is overall radioactivity in the presence of radioligand only, CA - is radioactivity in the presence of radioligand and tested compound and NA - is radioactivity in the presence of radioligand and Haloperidol (10 µM).

[7] = molecular target: T7, recombinant human 5-HT2A receptor (Homo sapiens, UniProt P28223); assay: Radioligand binding to serotonin receptor 5-HT2A ([3H] Ketanserin, CHO-K1 membranes); details: for inhibition at 10 µM / 5-HT2A % inhibition: 10 µM ligand
T7 construct: expressed in transfected cells; host or cells: CHO-K1
T7 sequence (P28223 whole entry): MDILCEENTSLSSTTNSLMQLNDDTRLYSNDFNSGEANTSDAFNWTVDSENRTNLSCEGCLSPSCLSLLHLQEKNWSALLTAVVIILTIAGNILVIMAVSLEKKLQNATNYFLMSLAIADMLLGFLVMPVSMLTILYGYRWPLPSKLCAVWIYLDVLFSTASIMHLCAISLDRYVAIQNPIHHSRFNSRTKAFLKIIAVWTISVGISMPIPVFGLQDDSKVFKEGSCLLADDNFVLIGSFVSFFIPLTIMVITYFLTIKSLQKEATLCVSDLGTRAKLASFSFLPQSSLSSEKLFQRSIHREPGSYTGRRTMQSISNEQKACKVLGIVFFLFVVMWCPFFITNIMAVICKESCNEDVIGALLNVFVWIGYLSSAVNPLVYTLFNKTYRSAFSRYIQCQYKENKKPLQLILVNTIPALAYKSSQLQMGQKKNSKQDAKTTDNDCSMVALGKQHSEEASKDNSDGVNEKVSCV
Text: 9-C. […] J Neurochem. […] Ketanserin is used as positive control.

[8] = molecular target: T8, recombinant human 5-HT1A (Homo sapiens, UniProt P08908); assay: Radioligand binding to serotonin receptor 5-HT1A ([3H] 8-OH-DPAT, CHO membranes); details: for inhibition at 10 µM: read-out: 5-HT1A % inhibition
T8 construct: expressed in transfected cells; host or cells: CHO
T8 sequence (P08908 1-422): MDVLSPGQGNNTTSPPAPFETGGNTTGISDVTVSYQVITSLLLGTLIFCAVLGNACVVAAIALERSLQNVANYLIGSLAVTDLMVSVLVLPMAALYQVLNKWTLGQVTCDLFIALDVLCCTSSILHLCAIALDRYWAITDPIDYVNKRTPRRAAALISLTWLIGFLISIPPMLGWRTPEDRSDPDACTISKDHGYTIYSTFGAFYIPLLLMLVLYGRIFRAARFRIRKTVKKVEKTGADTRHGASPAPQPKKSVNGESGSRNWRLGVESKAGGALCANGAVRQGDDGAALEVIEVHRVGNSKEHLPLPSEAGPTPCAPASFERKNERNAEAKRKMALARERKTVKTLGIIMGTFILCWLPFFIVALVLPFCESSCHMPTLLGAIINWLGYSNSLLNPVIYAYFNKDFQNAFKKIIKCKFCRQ
Text: J Pharmacol Exp Ther. 306(1): 301-309, 2003]. […] Metergoline is used as positive control.

[9] = read-out: Histamine receptors, % inhibition H1, 10 µM ligand
[10] = read-out: α-Adrenoceptor, % inhibition α2A
[11] = read-out: α-Adrenoceptor, % inhibition α1B
[12] = read-out: Dopamine receptors, % inhibition D3

T1 sequence (P35367 whole entry): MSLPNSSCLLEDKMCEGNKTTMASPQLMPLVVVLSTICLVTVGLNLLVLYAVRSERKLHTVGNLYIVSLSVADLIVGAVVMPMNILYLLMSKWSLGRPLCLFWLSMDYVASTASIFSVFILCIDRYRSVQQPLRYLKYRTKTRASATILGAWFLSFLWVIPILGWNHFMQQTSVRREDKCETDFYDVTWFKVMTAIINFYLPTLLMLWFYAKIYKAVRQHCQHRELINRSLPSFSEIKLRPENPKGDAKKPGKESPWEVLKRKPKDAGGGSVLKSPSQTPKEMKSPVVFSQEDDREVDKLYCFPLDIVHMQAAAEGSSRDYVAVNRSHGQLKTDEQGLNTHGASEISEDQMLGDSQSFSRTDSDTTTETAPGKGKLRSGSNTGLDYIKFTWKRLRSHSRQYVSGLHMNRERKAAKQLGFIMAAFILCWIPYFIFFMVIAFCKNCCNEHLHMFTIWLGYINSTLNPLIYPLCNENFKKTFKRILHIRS

Cc1ccc2c(c1)[C@@H]1CN(C)CCC[C@@H]1N2CCc1cccnc1 (relative stereo) [1.6.1(1)·3HCl]
inhibition at 10 µM [1, 9]: 100%
inhibition at 10 µM [2, 10]: 84%
inhibition at 10 µM [3, 11]: 94%
inhibition at 10 µM [4]: 59%
inhibition at 10 µM [5, 12]: 34%
inhibition at 10 µM [6]: -6%

Cc1ccc2c(c1)[C@@H]1CN(C)CCC[C@@H]1N2CCc1ccc(C)nc1 (relative stereo) [1.6.1(2)·3HCl]
inhibition at 10 µM [1, 9]: 102%
inhibition at 10 µM [7]: -4%
inhibition at 10 µM [2, 10]: 82%
inhibition at 10 µM [3, 11]: 93%
inhibition at 10 µM [8]: -9%
inhibition at 10 µM [4]: 55%
inhibition at 10 µM [5, 12]: 41%
inhibition at 10 µM [6]: -11%

Cc1ccc2c(c1)c1c(n2CCc2ccccc2)CCN(C)C1 [1.1.2(1-2)·HCl, 2,8-dimethyl-5-phenethyl-1,2,3,4-tetrahydro-1H-pyrido[4,3-b]indole hydrochloride]
inhibition at 10 µM [2, 10]: 95%
inhibition at 10 µM [3, 11]: 101%
inhibition at 10 µM [8]: 84%

Cc1ccc(CCn2c3c(c4cc(C)ccc42)CN(C)CC3)cc1 [1.1.2(1-3), 2,8-dimethyl-5-[2-(4-methylphenyl)-ethyl]-1,2,3,4-tetrahydro-1H-pyrido[4,3-b]indole]
5-HT2A % inhibition [7]: 98%
nH [2]: 1.12
nH [3]: 1,13
5-HT1A % inhibition ([8]; 10 µM ligand): 68%

Cc1ccc2c(c1)c1c(n2CCc2ccccn2)CCN(C)C1 [1.1.2(2-3)·2HCl]
inhibition at 10 µM [2, 10]: 93%
inhibition at 10 µM [3, 11]: 98%
inhibition at 10 µM [4]: 70%
inhibition at 3 µM [5, 12]: 78%
inhibition at 100 µM [6]: 71%

Cc1ccc2c(c1)c1c(n2CCc2ccc(C)nc2)CCN(C)C1 [1.1.2(4-2)·2HCl]
inhibition at 10 µM ([1]; 10 µM ligand, read-out: Histamine receptors, % inhibition H1): 100%
nH [1]: 1.01
inhibition at 10 µM ([2]; 10 µM ligand, read-out: α-Adrenoceptor, % inhibition α2A): 95%
nH [2]: 0.828
inhibition at 10 µM ([3]; 10 µM ligand, read-out: α-Adrenoceptor, % inhibition α1B): 101%
nH [3]: 1.54
inhibition at 10 µM ([8]; 10 µM ligand): 9%
inhibition at 10 µM ([4]; 10 µM ligand): 82%
inhibition at 10 µM ([5]; 10 µM ligand, read-out: Dopamine receptors, % inhibition D3): 64%
inhibition at 10 µM ([6]; 10 µM ligand): 54%

Cc1ccc2c(c1)c1c(n2CCc2ccccn2)CCCN(C)C1 [1.2.2(2-2)]
5-HT2A % inhibition [7]: 46%
α-Adrenoceptor, % inhibition α2A ([2]; 10 µM ligand): 90%
α-Adrenoceptor, % inhibition α1B ([3]; 10 µM ligand): 80%
5-HT1A % inhibition ([8]; 10 µM ligand): -5%

CN1CCc2c(c3ccccc3n2Cc2ccccc2)C1 [1.9(1)·1/2NDSA, bis-(5-benzyl-2-methyl-2,3,4,5-tetrahydro-1H-pyrido[4,3-b]indole) naphthalene-1,5-disulfonate]
Histamine receptors, % inhibition H1 ([1]; 10 µM ligand): 105%
nH [1]: 0.789
nH [2]: 1,13
inhibition at 0.3 µM [2, 10]: 73%
nH [3]: 0,956
inhibition at 3 µM [3, 11]: 62%
IC50 ([4]; Receptor D1): 3.66 µM
Ki ([4]; Receptor D1): 1830 nM
nH ([4]; Receptor D1): 1.38
inhibition at 10 µM [4]: 77%
nH ([5]; Receptor D3): 1.04
inhibition at 10 µM [5, 12]: 65%

CN1CCc2c(c3ccccc3n2Cc2ccccc2)C1.Cl [1.9(1)·HCl, 5-benzyl-2-methyl-2,3,4,5-tetrahydro-1H-pyrido[4,3-b]indole hydrochloride]
inhibition at 10 µM [1, 9]: 97%
inhibition at 0.1 µM ([7]; 0.1µM ligand): 68%
inhibition at 10 µM [7]: 96%
nH ([7]; 5-HT2A): 0.765
inhibition at 10 µM [2, 10]: 100%
inhibition at 10 µM [3, 11]: 70%

Reference: EP2236511A2, “LIGANDS OF ALPHA-ADRENOCEPTORS AND OF DOPAMINE, HISTAMINE, IMIDAZOLINE AND SEROTONIN RECEPTORS AND THE USE THEREOF” (priority 2007, dated 2009)
